# In patent US20240307575A1, “METHODS FOR […] MATTER” (priority 2021, published 2024):
# Where “and” joins values, the source holds several entries; their conditions need not be identical. Identical values can stand only once. Like-named read-outs stand apart in the source and are kept apart here.
# How the values were obtained:
# Total pathogen = assay: Example 4: total pathogen count after NaDCC and/or H2O2 pulses; format: cell-based; conditions: for Total pathogen Count: control 490,000; for Fold-Reduction: versus control
# Description: (§1) Aqueous solutions of NaDCC at variating concentrations from 1% [w/w] up to 5% [w/w] were prepared. […] Table 5 describes various sterilants and their effects:
# (§2) Each pulse with disinfectant consisted of vacuum to 1 mbar, then introduction of a sterilant to 100 mbar, 6 minutes of keeping the sterilant at that pressure, introduction of air to 500 mbar, then vacuum.
# Yeast & Molds = assay: Example 4: yeast and molds count after NaDCC and/or H2O2 pulses; format: cell-based; conditions: control 152,000
# Description: as §1, §2
# total count [1] = assay: Example 2, Table 3: total count after hydrogen peroxide pulses with air or ozone, with or without ozone preheat; format: cell-based; conditions: HPO to 75 mbar + air to 500 mbar 40° C. one pulse, control 130,000
# Description: (§3) In table 3, the samples were all preheated to, 40° C. Some of the samples, indicated “O3 preheat” were preheated in the presence of ozone at atmospheric pressure. […] Air was subsequently introduced to a pressure of 500 mbar. Then the chamber was evacuated.
# yeast and mold = conditions: hydrogen peroxide solution 50% in water, 40° C. 40 ml + 1 m; control 20,800; listed as H2O2
# Description: (§4) A control sample was used, which was not treated, to show microbial load before treatment.
# (§5) In each of the trials above, the H2O2 solution was introduced over a period of 3 minutes until a pressure of 70-100 mbar, by introduction of 4 injections, each injection of 10 ml. […] Some of the batches indicating “vent 700” were slowly vented to 700 mbar with air.
# total count [2] = conditions: hydrogen peroxide solution 50% in water, control 208,800
# Description: as §4, §5
# E. Coli = conditions: 15% [w/w] hydrogen peroxide vapor, mean of batches 1-3
# Description: (§6) In this example, cannabis inflorescence (200 mg) was thoroughly sterilized, then inoculated by soaking in 30 ml of microbial suspension, using each of the microbes in the amounts described in table 7 below, including a microbe mix, consisting of a mixture of all 4 microbes in the table.
# (§7) After soaking each sample of inflorescence in the respective microbial suspension, each sample was air dried in a laminar flow dryer overnight for 18 hours and refrigerated until sterilization was initiated. Inflorescence was sterilized 24, 48 and 72 hours post inoculation, designated batch 1, batch 2 and batch 3, respectively. Microbial load analysis was performed after each sterilization day. Samples were also inoculated, and not sterilized, to serve as controls. A saline solution was applied to some of the samples instead of a microbial suspension, to serve as a control.
# (§8) Analysis of microbial count was performed to samples before and after sterilization, and each microbe count was determined using sub-samples of […] each from each sample, and was performed in triplicate. The sub-samples were ground in 20 ml of saline solution, seeded in a petri dish with agar, which were then incubated at 37° C. for 48 hours, for counting of colonies, to determine number of colony forming units (CFU) per cannabis sample. Logarithmic reduction of pathogen as compared to non-sterilized sample was determined.
# (§9) Samples of cannabis inflorescence (200 mg) were introduced into a vacuum chamber in either a top tray or a middle tray. The top tray was located in the uppermost location in the chamber, where the highest temperature is measured. The temperature was set to be maintained at 50° C., however, due to the fact that heat rises within the chamber, and that sterilant solution was introduced to the chamber as a vapor having a temperature of about 140-150° C., in some of the experiments the temperature in the uppermost chamber reached 54° C.±1° C. and in some 58° C.±2° C. Two or three pulses of disinfection were performed for each sample, and the results are described in Table 8. In each pulse, pressure was reduced to 3±2 mbar. […] Then, air was added and pressure was maintained at 500 mbar for 6 minutes at that pressure. The air was then removed from the chamber and the pressure reduced to 3±2 mbar. This process constitutes one pulse. One or two additional pulses were performed for samples, for a total of two pulses per sample, or three pulses per sample. In the final pulse, after initiating a vacuum, air was then introduced and the chamber was […] to a pressure of 1 atmosphere.
# (§10) For each pathogen, mean log reduction was calculated by log10 transformation of CFU values, analyzing each microbial treatment process separately. Sterilization processes were compared with a 1-way ANOVA on log transformed data.
# Pseudomonas aeruginosa = conditions: 15% [w/w] hydrogen peroxide vapor, mean of batches 1-3
# Description: as §6, §7, §8, §9, §10
# Microbe mix (all 4) = conditions: 15% [w/w] hydrogen peroxide vapor, mean of batches 1-3
# Description: as §6, §7, §8, §9, §10
# Aspergillus brasiliensis = conditions: for mean log reduction: 15% [w/w] hydrogen peroxide vapor, mean of batches 1-3
# Description: as §6, §7, §8, §9, §10
# Candida albicans = conditions: for mean log reduction: 15% [w/w] hydrogen peroxide vapor, mean of batches 1-3
# Description: as §6, §7, §8, §9, §10
# total count [3] = conditions: for Total Count: HPO to 60 mbar 6 minutes, air 500 mbar 6 minutes, 40°, control 1,350,000; for Total Count Fold-Reduction: versus control
# Description: (§11) For two of the samples, no preheating was performed, and for two of the samples, preheating was performed. Preheating involved warming the plant matter in the chamber at 40° C. for 5 minutes. Either one or two pulses of sterilant were performed. All pulses were performed at 40°. Before each pulse, the pressure in the chamber was reduced to 1 mbar.
# (§12) Then, air was added and pressure was maintained at 500 mbar for 6 minutes.
# Yeast & Mold = conditions: for Yeast & Mold: HPO to 60 mbar 6 minutes, air 500 mbar 6 minutes, 40°, control 1,150,000; for Yeast & Mold Fold-Reduction: versus control
# Description: as §11, §12
# yeasts & molds = assay: Example 2, Table 3: yeast and mold count after hydrogen peroxide pulses with air or ozone, with or without ozone preheat; format: cell-based; conditions: HPO to 75 mbar + air to 500 mbar 40° C. one pulse, control 1,950
# Description: as §3
# [4] = Preheat (40° C. for 5 minutes), one pulse
# [5] = Preheat (40° C. for 5 minutes), two pulses
smiles,measurement,setting,value
"O=c1nc([O-])n(Cl)c(=O)n1Cl.[Na+] [NaDCC, Sodium dichloroisocyanurate]",Total pathogen Count,"Total pathogen; NaDCC 1% [w/w], 1 pulse","35,100"
same,Fold-Reduction,"Total pathogen; NaDCC 1% [w/w], 1 pulse",14
same,Total pathogen Count,"Total pathogen; NaDCC 1% [w/w], 2 pulses","17,900"
same,Fold-Reduction,"Total pathogen; NaDCC 1% [w/w], 2 pulses",27
same,Total pathogen Count,"Total pathogen; NaDCC 2% [w/w], 1 pulse","24,500"
same,Fold-Reduction,"Total pathogen; NaDCC 2% [w/w], 1 pulse",20
same,Total pathogen Count,"Total pathogen; NaDCC 2% [w/w], 2 pulses","11,075"
same,Fold-Reduction,"Total pathogen; NaDCC 2% [w/w], 2 pulses",44
same,Total pathogen Count,"Total pathogen; NaDCC 5% [w/w], 1pulse","32,667"
same,Fold-Reduction,"Total pathogen; NaDCC 5% [w/w], 1pulse",15
same,Total pathogen Count,"Total pathogen; NaDCC 5% [w/w], 2 pulses","40,833"
same,Fold-Reduction,"Total pathogen; NaDCC 5% [w/w], 2 pulses",12
same,Yeast & Molds Count,"Yeast & Molds; NaDCC 1% [w/w], 1 pulse","10,857"
same,Yeast & Molds Count,"Yeast & Molds; NaDCC 1% [w/w], 2 pulses","5,553"
same,Yeast & Molds Count,"Yeast & Molds; NaDCC 2% [w/w], 1 pulse","7,600"
same,Yeast & Molds Count,"Yeast & Molds; NaDCC 2% [w/w], 2 pulses","3,436"
same,Yeast & Molds Count,"Yeast & Molds; NaDCC 5% [w/w], 1pulse","10,133"
same,Yeast & Molds Count,"Yeast & Molds; NaDCC 5% [w/w], 2 pulses","12,667"
OO [hydrogen peroxide],Total pathogen Count,"Total pathogen; 50% H2O2, 2 pulses","8,033"
same,Fold-Reduction,"Total pathogen; 50% H2O2, 2 pulses",61
same,TC,total count [1]; sample weight 100 gr,"11,000 cfu/ml"
same,TC,total count [1]; sample weight 300 gr,"48,000 cfu/ml"
same,Y&M,yeast and mold,"2,600 cfu/ml and 2,500 cfu/ml"
same,TC,"total count [2]; 30° C. 40 ml, 200 g inflorescence","31,000 cfu/ml"
same,TC,"total count [2]; 40° C. 40 ml + 1 m + Vent700, listed as H2O2","12,000 cfu/ml and 19,000 cfu/ml"
same,TC,"total count [2]; 40° C. 40 ml, listed as H2O2","15,000 cfu/ml and 10,000 cfu/ml"
same,mean log reduction,"E. Coli; 2 pulses, Middle tray",3.5
same,mean log reduction,"E. Coli; 2 pulses, Top tray",3.5
same,mean log reduction,"E. Coli; 3 pulses, Middle tray",4.3
same,mean log reduction,"E. Coli; 3 pulses, Top tray",4.8
same,mean log reduction,"Pseudomonas aeruginosa; 2 pulses, Middle tray",3.7
same,mean log reduction,"Pseudomonas aeruginosa; 2 pulses, Top tray",5.3
same,mean log reduction,"Pseudomonas aeruginosa; 3 pulses, Middle tray",4.7
same,mean log reduction,"Pseudomonas aeruginosa; 3 pulses, Top tray",7.2
same,mean log reduction,"Microbe mix (all 4); 2 pulses, Middle tray",2.8
same,mean log reduction,"Microbe mix (all 4); 2 pulses, Top tray",5.5
same,mean log reduction,"Microbe mix (all 4); 3 pulses, Middle tray",5.1
same,mean log reduction,"Microbe mix (all 4); 3 pulses, Top tray",7.0
same,mean log reduction,"Aspergillus brasiliensis; 2 pulses, Middle tray",2.0
same,mean log reduction,"Aspergillus brasiliensis; 2 pulses, Top tray",3.3
same,mean log reduction,"Aspergillus brasiliensis; 3 pulses, Middle tray",2.2
same,mean log reduction,"Aspergillus brasiliensis; 3 pulses, Top tray",3.3
same,reduction in microbial count after treatment,Aspergillus brasiliensis; sterilized at 24 hours post inoculation,5 log
same,mean log reduction,"Candida albicans; 2 pulses, Middle tray",2.8
same,mean log reduction,"Candida albicans; 2 pulses, Top tray",6.3
same,mean log reduction,"Candida albicans; 3 pulses, Middle tray",6.0
same,mean log reduction,"Candida albicans; 3 pulses, Top tray",6.3
same,reduction in microbial count,"Candida albicans; top tray, both 2 and 3 pulses",≥ 6 fold
same,Yeast & Molds Count,"Yeast & Molds; 50% H2O2, 2 pulses","2,492"
same,Total Count,"total count [3]; No preheat, one pulse","5,556 cfu/ml"
same,Total Count Fold-Reduction,"total count [3]; No preheat, one pulse",243
same,Total Count,"total count [3]; No preheat, two pulses","3,082 cfu/ml"
same,Total Count Fold-Reduction,"total count [3]; No preheat, two pulses",438
same,Total Count,total count [3]; [4],"2,316 cfu/ml"
same,Total Count,total count [3]; [5],"1,028 cfu/ml"
same,Total Count Fold-Reduction,"total count [3]; Preheat, one pulse",583
same,Total Count Fold-Reduction,"total count [3]; Preheat, two pulses","1,313"
same,"decontamination, reduction of microbes",total count [3]; pre-heating stage and two sterilant pulses combined,over 3 orders of magnitude
same,Yeast & Mold,"Yeast & Mold; No preheat, one pulse","19,828 cfu/ml"
same,Yeast & Mold Fold-Reduction,"Yeast & Mold; No preheat, one pulse",58
same,Yeast & Mold,"Yeast & Mold; No preheat, two pulses","3,249 cfu/ml"
same,Yeast & Mold Fold-Reduction,"Yeast & Mold; No preheat, two pulses",354
same,Yeast & Mold,Yeast & Mold; [4],"3,433 cfu/ml"
same,Yeast & Mold,Yeast & Mold; [5],415 cfu/ml
same,Yeast & Mold Fold-Reduction,"Yeast & Mold; Preheat, one pulse",335
same,Yeast & Mold Fold-Reduction,"Yeast & Mold; Preheat, two pulses","2,770"
same,Y&M,yeasts & molds; sample weight 100 gr,100 cfu/ml
same,Y&M,yeasts & molds; sample weight 300 gr,30 cfu/ml
